Source: patent publication US11213522B2, “Autoimmune-induced glutamatergic receptor dysfunction methods and treatments” (SARAH HERZOG MEMORIAL HOSPITAL EZRAT NASHIM ASSOCIATION, priority 2013, dated 2022)

Tested on: Rodent neuron cell cultures treated with anti-NMDAR antibodies
Experiment: Example 3: NMDAR localization in neuron cultures treated with anti-NMDAR antibodies
Format: cell-based
Conditions: Glycine 100-500 uM; histological measurements
Procedure: Rodent neuron cell cultures are treated with anti-NMDAR antibodies as described in Hughes E G et al., J Neurosci 2012 30(17):5866-75. […] The determination of receptors localization and other relevant measures is based on histological measurements.
Immunohistochemical methods will be applied to document (a) localization of NMDAR and NR1 and NR2 subunits; (b) loss of oligodendrocytes; (c) changes in astrocytes (S100beta) and microglia (cd11b), (d) expression of neurotrophic factors: brain derived neurotrophic factor (BDNF), nerve growth factor (NGF) and ciliary neurotrophic factor (CNTF); (e) markers of neurogenesis—doublecortin (17) and apoptosis—caspase3 (9). Quantification of histological measurements is based on images in several cortical subregions, striatum, […], hippocampus, and cerebellum.

NCC(=O)O [Glycine]
Effect on NMDAR intracellular localization: reversing receptor intracellular localization
